Tests used:
[1] = biological target: JAK2 (Homo sapiens (Human), UniProt O60674); experiment: Jak Biochemical HTRF Assay (JAK2); conditions: recombinant GST-tagged catalytic domain, [ATP] 8.5 μM
[2] = biological target: JAK3 (Homo sapiens (Human), UniProt P52333); experiment: Jak Biochemical HTRF Assay (JAK3); conditions: recombinant GST-tagged catalytic domain, [ATP] 2.9 μM
Chain of JAK3 (P52333 822-1111): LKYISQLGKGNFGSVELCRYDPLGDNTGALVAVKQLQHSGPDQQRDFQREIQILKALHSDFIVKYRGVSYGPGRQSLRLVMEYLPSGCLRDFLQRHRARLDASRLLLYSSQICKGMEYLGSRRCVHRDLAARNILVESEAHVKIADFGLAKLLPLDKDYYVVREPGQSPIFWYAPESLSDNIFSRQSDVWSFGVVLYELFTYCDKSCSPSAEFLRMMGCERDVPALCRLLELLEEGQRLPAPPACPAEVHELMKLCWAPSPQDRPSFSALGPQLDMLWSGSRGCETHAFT

Chain of JAK2 (O60674 849-1124): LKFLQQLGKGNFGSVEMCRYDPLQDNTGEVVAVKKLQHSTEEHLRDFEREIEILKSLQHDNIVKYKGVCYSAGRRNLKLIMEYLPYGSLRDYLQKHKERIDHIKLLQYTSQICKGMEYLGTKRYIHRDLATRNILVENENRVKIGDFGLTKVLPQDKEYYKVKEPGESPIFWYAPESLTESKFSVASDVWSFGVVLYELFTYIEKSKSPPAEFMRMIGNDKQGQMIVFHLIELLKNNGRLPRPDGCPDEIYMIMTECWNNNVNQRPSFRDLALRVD

SMILES: C=C(C)C(=O)Nc1cccc(-c2ncnc3[nH]cc(-c4ccc(F)cc4)c23)c1 [Example 20-4, N-{3-[5-(4-fluorophenyl)-7H-pyrrolo[2,3-d]pyrimidin-4-yl]phenyl}-2-methylprop-2-enamide]
- IC50 [1]: > 1500 nM
- IC50 [2]: 1.5 nM

SMILES: C/C=C(/OC)C(=O)Nc1cccc(-c2ncnc3[nH]cc(C(=O)OCC)c23)c1 [Example 5-38, ethyl 4-(3-{[(2E)-2-methoxybut-2-enoyl]amino}phenyl)-7H-pyrrolo[2,3-d]pyrimidine-5-carboxylate]
- IC50 ([1]; given as range class): > 500 nM
- IC50 ([2]; given as range class): 10 to 500 nM

SMILES: CCOC(=O)c1c[nH]c2ncnc(-c3cccc(Nc4ncnc(C#N)n4)c3)c12 [Example 6-3, ethyl 4-{3-[(4-cyano-1,3,5-triazin-2-yl)amino]phenyl}-7H-pyrrolo[2,3-d]pyrimidine-5-carboxylate]
- IC50 ([1]; given as range class): 10 to 500 nM
- IC50 ([2]; given as range class): 10 to 500 nM

SMILES: C=C(C)C(=O)Nc1cccc(-c2ncnc3[nH]cc(C(=O)OCC)c23)c1F [Example 4-2, Ethyl 4-{2-fluoro-3-[(2-methylacryloyl)amino]phenyl}-7H-pyrrolo[2,3-d]pyrimidine-5-carboxylate]
- IC50 [1]: > 1500 nM
- IC50 [2]: 4 nM

SMILES: C=C(C)C(=O)Nc1cccc(-c2ncnc3[nH]cc(-c4cccc(C)c4)c23)c1 [Example 20-1, 2-Methyl-N-{3-[5-(3-methylphenyl)-7H-pyrrolo[2,3-d]pyrimidin-4-yl]phenyl}prop-2-enamide]
- IC50 [1]: > 1500 nM
- IC50 [2]: 0.17 nM

SMILES: CCOC(=O)c1c[nH]c2ncnc(-c3ccc(C(F)(F)F)cc3)c12 [Example 1-36, ethyl 4-[4-(trifluoromethyl)phenyl]-7H-pyrrolo[2,3-d]pyrimidine-5-carboxylate]
- IC50 ([1]; given as range class): > 500 nM
- IC50 ([2]; given as range class): 10 to 500 nM

SMILES: CCOC(=O)c1c[nH]c2ncnc(C3=CCN(C(=O)OC(C)(C)C)CC3)c12 [Example 1-18, ethyl 4-[1-(tert-butoxycarbonyl)-1,2,3,6-tetrahydropyridin-4-yl]-7H-pyrrolo[2,3-d]pyrimidine-5-carboxylate]
- IC50 ([1]; given as range class): 10 to 500 nM
- IC50 ([2]; given as range class): 10 to 500 nM

SMILES: CCOC(=O)c1c[nH]c2ncnc(-c3ccccc3Cl)c12 [Example 1-43, ethyl 4-(2-chlorophenyl)-7H-pyrrolo[2,3-d]pyrimidine-5-carboxylate]
- IC50 ([1]; given as range class): > 500 nM
- IC50 ([2]; given as range class): 10 to 500 nM

SMILES: C=C(C)C(=O)Nc1cccc(-c2ncnc3[nH]cc(-c4ncco4)c23)c1 [Example 22, N-(3-(5-(Oxazol-2-yl)-7H-pyrrolo[2,3-d]pyrimidin-4-yl)phenyl)methacrylamide]
- IC50 [1]: > 1500 nM
- IC50 [2]: 8 nM

SMILES: CCOC(=O)c1c[nH]c2ncnc(-c3cnn4c3CCCC4)c12 [Example 1-62, ethyl 4-(4,5,6,7-tetrahydropyrazolo[1,5-a]pyridin-3-yl)-7H-pyrrolo[2,3-d]pyrimidine-5-carboxylate]
- IC50 ([1]; given as range class): > 500 nM
- IC50 ([2]; given as range class): 10 to 500 nM

SMILES: CCOC(=O)c1c[nH]c2ncnc(-c3cccc(NC(=O)/C=C\c4ccccc4OC)c3)c12 [Example 5-23, ethyl 4-(3-{[(2Z)-3-(2-methoxyphenyl)prop-2-enoyl]amino}phenyl)-7H-pyrrolo[2,3-d]pyrimidine-5-carboxylate]
- IC50 ([1]; given as range class): > 500 nM
- IC50 ([2]; given as range class): 10 to 500 nM

SMILES: CCOC(=O)c1c[nH]c2ncnc(-c3cccc(NC(=O)C4=COCCO4)c3)c12 [Example 5-13, ethyl 4-{3-[(5,6-dihydro-1,4-dioxin-2-ylcarbonyl)amino]phenyl}-7H-pyrrolo[2,3-d]pyrimidine-5-carboxylate]
- IC50 ([1]; given as range class): > 500 nM
- IC50 ([2]; given as range class): 10 to 500 nM

SMILES: C=C(C)C(=O)Nc1cccc(-c2ncnc3[nH]cc(C4=CCOCC4)c23)c1 [Example 21-5, N-(3-(5-(3,6-dihydro-2H-pyran-4-yl)-7H-pyrrolo[2,3-d]pyrimidin-4-yl)phenyl)methacrylamide]
- IC50 [1]: > 1500 nM
- IC50 [2]: 5 nM

SMILES: CCOC(=O)c1c[nH]c2ncnc(-c3cccc(C(N)=O)c3)c12 [Example 1-12, ethyl 4-(3-carbamoylphenyl)-7H-pyrrolo[2,3-d]pyrimidine-5-carboxylate]
- IC50 ([1]; given as range class): > 500 nM
- IC50 ([2]; given as range class): 10 to 500 nM

SMILES: CCOC(=O)c1c[nH]c2ncnc(-c3ccc(C(C)(C)O)cc3)c12 [Example 1-107, ethyl 4-[4-(1-hydroxy-1-methylethyl)phenyl]-7H-pyrrolo[2,3-d]pyrimidine-5-carboxylate]
- IC50 ([1]; given as range class): 10 to 500 nM
- IC50 ([2]; given as range class): 10 to 500 nM

SMILES: CCOC(=O)c1c[nH]c2ncnc(-c3ccc4c(c3)CN(C(=O)OC(C)(C)C)CC4)c12 [Example 1-78, tert-butyl 7-[5-(ethoxycarbonyl)-7H-pyrrolo[2,3-d]pyrimidin-4-yl]-3,4-dihydroisoquinoline-2(1H)-carboxylate]
- IC50 ([1]; given as range class): > 500 nM
- IC50 ([2]; given as range class): 10 to 500 nM

SMILES: c1ccc(Oc2cccc(-c3c[nH]c4ncnc(-c5ccccc5)c34)c2)cc1 [Example 32-4, 5-(3-phenoxyphenyl)-4-phenyl-7H-pyrrolo[2,3-d]pyrimidine]
- IC50 ([1]; given as range class): > 500 nM
- IC50 ([2]; given as range class): 10 to 500 nM

SMILES: CCOC(=O)c1c[nH]c2ncnc(-c3cccc(NC(=O)c4c[nH]c(=O)[nH]c4=O)c3)c12 [Example 5-18, ethyl 4-(3-{[(2,4-dioxo-1,2,3,4-tetrahydropyrimidin-5-yl)carbonyl]amino}phenyl)-7H-pyrrolo[2,3-d]pyrimidine-5-carboxylate]
- IC50 ([1]; given as range class): > 500 nM
- IC50 ([2]; given as range class): 10 to 500 nM

SMILES: C=C(C)C(=O)Nc1cc(-c2ncnc3[nH]cc(C(=O)OCC)c23)cnc1OC [Example 4-32, ethyl 4-{6-methoxy-5-[(2-methylacryloyl)amino]pyridin-3-yl)-7H-pyrrolo[2,3-d]pyrimidine-5-carboxylate]
- IC50 [1]: > 1500 nM
- IC50 [2]: 0.68 nM

SMILES: COc1ncccc1-c1c[nH]c2ncnc(-c3ccccc3)c12 [Example 32-1, 5-(2-Methoxypyridin-3-yl)-4-phenyl-7H-pyrrolo[2,3-d]pyrimidine]
- IC50 ([1]; given as range class): 10 to 500 nM
- IC50 ([2]; given as range class): 10 to 500 nM

SMILES: CCOC(=O)c1c[nH]c2ncnc(-c3cccc(NC(=O)c4c[nH]c(=O)[nH]4)c3)c12 [Example 5-20, ethyl 4-(3-{[(2-oxo-2,3-dihydro-1H-imidazol-4-yl)carbonyl]amino}phenyl)-7H-pyrrolo[2,3-d]pyrimidine-5-carboxylate]
- IC50 ([1]; given as range class): > 500 nM
- IC50 ([2]; given as range class): 10 to 500 nM

SMILES: CCOC(=O)c1c[nH]c2ncnc(-c3cccc(-c4nc(Cl)ns4)c3)c12 [Example 7-2, ethyl 4-(3-(3-chloro-1,2,4-thiadiazol-5-yl)phenyl)-7H-pyrrolo[2,3-d]pyrimidine-5-carboxylate]
- IC50 ([1]; given as range class): > 500 nM
- IC50 ([2]; given as range class): 10 to 500 nM

SMILES: C=CC(=O)Nc1cc(-c2ncnc3[nH]cc(C(=O)OCC)c23)ccc1C [Example 4-11, ethyl 4-[3-(acryloylamino)-4-methylphenyl]-7H-pyrrolo[2,3-d]pyrimidine-5-carboxylate]
- IC50 [1]: > 1500 nM
- IC50 [2]: 0.033 nM

SMILES: CCOC(=O)c1c[nH]c2ncnc(-c3cccc(NC(=O)/C(C)=C/CN(C)C)c3)c12 [Example 17, Ethyl 4-(3-{[(2E)-4-(dimethylamino)-2-methylbut-2-enoyl]amino}phenyl)-7H-pyrrolo[2,3-d]pyrimidine-5-carboxylate]
- IC50 [1]: > 1500 nM
- IC50 [2]: 6.6 nM

SMILES: COc1cccc(-c2c[nH]c3ncnc(-c4ccccc4)c23)c1 [Example 32-3, 5-(3-methoxyphenyl)-4-phenyl-7H-pyrrolo[2,3-d]pyrimidine]
- IC50 [1]: 93 nM
- IC50 [2]: 3.1 nM

SMILES: C=CC(=O)Nc1cc(-c2ncnc3[nH]cc(C(=O)OCC)c23)ccc1Cl [Example 4-14, ethyl 4-[3-(acryloylamino)-4-chlorophenyl]-7H-pyrrolo[2,3-d]pyrimidine-5-carboxylate]
- IC50 [1]: > 1500 nM
- IC50 [2]: 0.066 nM

SMILES: C=C(C)C(=O)Nc1cc(-c2ncnc3[nH]cc(C(=O)OCC)c23)ccc1O [Example 4-31, ethyl 4-{4-hydroxy-3-[(2-methylacryloyl)amino]phenyl}-7H-pyrrolo[2,3-d]pyrimidine-5-carboxylate]
- IC50 [1]: > 1500 nM
- IC50 [2]: 0.11 nM

SMILES: CCOC(=O)c1c[nH]c2ncnc(-c3cccc(N4CCS(=O)(=O)CC4)c3)c12 [Example 1-95, ethyl 4-[3-(1,1-dioxidothiomorpholin-4-yl)phenyl]-7H-pyrrolo[2,3-d]pyrimidine-5-carboxylate]
- IC50 ([1]; given as range class): > 500 nM
- IC50 ([2]; given as range class): 10 to 500 nM

SMILES: C=C(CC)C(=O)Nc1cccc(-c2ncnc3[nH]cc(C(=O)OCC)c23)c1 [Example 4-8, ethyl 4-{3-[(2-methylidenebutanoyl)amino]phenyl}-7H-pyrrolo[2,3-d]pyrimidine-5-carboxylate]
- IC50 [1]: > 1500 nM
- IC50 [2]: 0.61 nM

SMILES: CCOC(=O)c1c[nH]c2ncnc(-c3cc4ccccc4s3)c12 [Example 1-50, ethyl 4-(1-benzothiophen-2-yl)-7H-pyrrolo[2,3-d]pyrimidine-5-carboxylate]
- IC50 [1]: 54 nM
- IC50 [2]: 4.8 nM

SMILES: CCOC(=O)c1c[nH]c2ncnc(-c3cccc(NC(=O)/C=C/c4ccoc4)c3)c12 [Example 5-22, ethyl 4-(3-{[(2E)-3-furan-3-ylprop-2-enoyl]amino}phenyl)-7H-pyrrolo[2,3-d]pyrimidine-5-carboxylate]
- IC50 ([1]; given as range class): > 500 nM
- IC50 ([2]; given as range class): 10 to 500 nM

SMILES: CCOC(=O)c1c[nH]c2ncnc(-c3cccc(NC(=O)C=C4CCCC4)c3)c12 [Example 5-37, ethyl 4-{3-[(cyclopentylideneacetyl)amino]phenyl}-7H-pyrrolo[2,3-d]pyrimidine-5-carboxylate]
- IC50 ([1]; given as range class): > 500 nM
- IC50 ([2]; given as range class): 10 to 500 nM

SMILES: CCOC(=O)c1c[nH]c2ncnc(-c3cccc(NC(=O)/C=C/C(C)=O)c3)c12 [Example 5-14, ethyl 4-(3-{[(2E)-4-oxopent-2-enoyl]amino}phenyl)-7H-pyrrolo[2,3-d]pyrimidine-5-carboxylate]
- IC50 [1]: > 1500 nM
- IC50 [2]: 5.3 nM

SMILES: CCOC(=O)c1c[nH]c2ncnc(-c3ccc4sc(C)nc4c3)c12 [Example 1-25, ethyl 4-(2-methyl-1,3-benzothiazol-5-yl)-7H-pyrrolo[2,3-d]pyrimidine-5-carboxylate]
- IC50 ([1]; given as range class): 10 to 500 nM
- IC50 ([2]; given as range class): 10 to 500 nM

SMILES: C=C(C)C(=O)Nc1cc(-c2ncnc3[nH]cc(C(=O)OCC)c23)ccc1S(C)(=O)=O [Example 4-29, ethyl 4-{3-[(2-methylacryloyl)amino]-4-(methylsulfonyl)phenyl}-7H-pyrrolo[2,3-d]pyrimidine-5-carboxylate]
- IC50 [1]: > 1500 nM
- IC50 [2]: 0.087 nM
